Measurements reported in the NIST ThermoML archive (doi:10.1016/j.tca.2016.05.001).
Values joined by “and” are separate entries in the source; they are usually repeats but may differ in a detail not shown here. Equal values may be shown once. ± gives the expanded uncertainty stated by the source.

Key:
[1] = Molar enthalpy of transition or fusion; conditions: Crystal; DSC
[2] = for Triple point temperature: DSC

c1cnc2c(c1)ccc1cccnc12 [1,10-phenanthroline]
Conditions | Molar enthalpy of transition or fusion [kcal/mol]
[1] | 3.2 ± 0.382

[2]
Conditions | vapor or sublimation pressure [kPa]
308.1 K, Crystal, Calculated from knudsen effusion weight loss | 8.3e-07 ± 1.9e-07
313.1 K, Crystal, Calculated from knudsen effusion weight loss | 1.76e-06 ± 3.7e-07
318.1 K, Crystal, Calculated from knudsen effusion weight loss | 3.3e-06 ± 7e-07
320.9 K, Crystal, Calculated from knudsen effusion weight loss | 4.6e-06 ± 1e-06
323.1 K, Crystal, Calculated from knudsen effusion weight loss | 5.5e-06 ± 1.2e-06
325.8 K, Crystal, Calculated from knudsen effusion weight loss | 8e-06 ± 1.7e-06
327.9 K, Crystal, Calculated from knudsen effusion weight loss | 9.9e-06 ± 2.1e-06
330.9 K, Crystal, Calculated from knudsen effusion weight loss | 1.53e-05 ± 3.2e-06
332.8 K, Crystal, Calculated from knudsen effusion weight loss | 1.71e-05 ± 3.6e-06
335.7 K, Crystal, Calculated from knudsen effusion weight loss | 2.6e-05 ± 5e-06
337.7 K, Crystal, Calculated from knudsen effusion weight loss | 3e-05 ± 6e-06
340.6 K, Crystal, Calculated from knudsen effusion weight loss | 4.2e-05 ± 9e-06
342.6 K, Crystal, Calculated from knudsen effusion weight loss | 5.1e-05 ± 1.1e-05
345.5 K, Crystal, Calculated from knudsen effusion weight loss | 7.7e-05 ± 1.6e-05
345.6 K, Crystal, Calculated from knudsen effusion weight loss | 7.5e-05 ± 1.6e-05
347.5 K, Crystal, Calculated from knudsen effusion weight loss | 9.2e-05 ± 1.9e-05
350.8 K, Crystal, Calculated from knudsen effusion weight loss | 0.000131 ± 2.7e-05
352.7 K, Crystal, Calculated from knudsen effusion weight loss | 0.000148 ± 3.1e-05
354.7 K, Crystal, Calculated from knudsen effusion weight loss | 0.000194 ± 4e-05
357.7 K, Crystal, Calculated from knudsen effusion weight loss | 0.00024 ± 5e-05
358.6 K, Crystal, Calculated from knudsen effusion weight loss | 0.00025 ± 5e-05
360.5 K, Crystal, Calculated from knudsen effusion weight loss | 0.0003 ± 6e-05
360.6 K, Crystal, Calculated from knudsen effusion weight loss | 0.00033 ± 7e-05
361.8 K, Crystal, Calculated from knudsen effusion weight loss | 0.00034 ± 7e-05
362.5 K, Crystal, Calculated from knudsen effusion weight loss | 0.00038 ± 8e-05
363.4 K, Crystal, Calculated from knudsen effusion weight loss | 0.0004 ± 8e-05
365 K, Crystal, Calculated from knudsen effusion weight loss | 0.00046 ± 0.0001
366.3 K, Crystal, Calculated from knudsen effusion weight loss | 0.00052 ± 0.00011
367.4 K, Crystal, Calculated from knudsen effusion weight loss | 0.0006 ± 0.00012
367.6 K, Crystal, Calculated from knudsen effusion weight loss | 0.00059 ± 0.00012
369.3 K, Crystal, Calculated from knudsen effusion weight loss | 0.00069 ± 0.00014
370.9 K, Crystal, Calculated from knudsen effusion weight loss | 0.0008 ± 0.00017
372.2 K, Crystal, Calculated from knudsen effusion weight loss | 0.0009 ± 0.00019
374 K, Crystal, Calculated from knudsen effusion weight loss | 0.00107 ± 0.00023
375.1 K, Crystal, Calculated from knudsen effusion weight loss | 0.00119 ± 0.00026
377.2 K, Crystal, Calculated from knudsen effusion weight loss | 0.0014 ± 0.0003
378.1 K, Crystal, Calculated from knudsen effusion weight loss | 0.00154 ± 0.00034
380.1 K, Crystal, Calculated from knudsen effusion weight loss | 0.00182 ± 0.0004
381 K, Crystal, Calculated from knudsen effusion weight loss | 0.00199 ± 0.00044
382.8 K, Crystal, Calculated from knudsen effusion weight loss | 0.00229 ± 0.0005
384.2 K, Crystal, Calculated from knudsen effusion weight loss | 0.00264 ± 0.00058
385.6 K, Crystal, Calculated from knudsen effusion weight loss | 0.00292 ± 0.00064
387.1 K, Crystal, Calculated from knudsen effusion weight loss | 0.00335 ± 0.00074
393.2 K, Liquid, Rate of evaporation | 0.0054 ± 0.0022
395.9 K, Liquid, Rate of evaporation | 0.0061 ± 0.0025
398.6 K, Liquid, Rate of evaporation | 0.0073 ± 0.003
401.3 K, Liquid, Rate of evaporation | 0.0084 ± 0.0034
404.1 K, Liquid, Rate of evaporation | 0.0094 ± 0.0038
406.8 K, Liquid, Rate of evaporation | 0.0113 ± 0.0046
409.5 K, Liquid, Rate of evaporation | 0.0131 ± 0.0053
412.3 K, Liquid, Rate of evaporation | 0.0147 ± 0.006
415 K, Liquid, Rate of evaporation | 0.0173 ± 0.007
417.7 K, Liquid, Rate of evaporation | 0.0206 ± 0.0084
420.5 K, Liquid, Rate of evaporation | 0.024 ± 0.0098

Conditions | Triple point temperature [K]
[2], Crystal | 390.9 ± 2.1

c1ccc2nc3ccccc3cc2c1 [acridine]
Conditions | Molar enthalpy of transition or fusion [kcal/mol]
[1] | 4.9 ± 0.359

[2]
Conditions | vapor or sublimation pressure
292.1 K, Crystal, Calculated from knudsen effusion weight loss | 4e-06 ± 9e-07 kPa
293 K, Crystal, Calculated from knudsen effusion weight loss | 4.7e-06 ± 1e-06 kPa
295.2 K, Crystal, Calculated from knudsen effusion weight loss | 6.3e-06 ± 1.3e-06 kPa
296.1 K, Crystal, Calculated from knudsen effusion weight loss | 6.7e-06 ± 1.4e-06 kPa
298.4 K, Crystal, Calculated from knudsen effusion weight loss | 9.6e-06 ± 2e-06 kPa
300 K, Crystal, Calculated from knudsen effusion weight loss | 1.2e-05 ± 3e-06 kPa
301.3 K, Crystal, Calculated from knudsen effusion weight loss | 1.4e-05 ± 3e-06 kPa
303 K, Crystal, Calculated from knudsen effusion weight loss | 1.8e-05 ± 4e-06 kPa
304.2 K, Crystal, Calculated from knudsen effusion weight loss | 2e-05 ± 4e-06 kPa
305.9 K, Crystal, Calculated from knudsen effusion weight loss | 2.6e-05 ± 5e-06 kPa
306.2 K, Crystal, Calculated from knudsen effusion weight loss | 2.6e-05 ± 5e-06 kPa
308.1 K, Crystal, Calculated from knudsen effusion weight loss | 3.3e-05 ± 7e-06 kPa
308.9 K, Crystal, Calculated from knudsen effusion weight loss | 3.7e-05 ± 8e-06 kPa
311.1 K, Crystal, Calculated from knudsen effusion weight loss | 4.7e-05 ± 1e-05 kPa
311.9 K, Crystal, Calculated from knudsen effusion weight loss | 5.3e-05 ± 1.1e-05 kPa
314.1 K, Crystal, Calculated from knudsen effusion weight loss | 6.8e-05 ± 1.4e-05 kPa
314.8 K, Crystal, Calculated from knudsen effusion weight loss | 7.1e-05 ± 1.5e-05 kPa
315.8 K, Crystal, Calculated from knudsen effusion weight loss | 8.4e-05 ± 1.8e-05 kPa
317 K, Crystal, Calculated from knudsen effusion weight loss | 9.3e-05 ± 1.9e-05 kPa
317.8 K, Crystal, Calculated from knudsen effusion weight loss | 9.8e-05 ± 2.1e-05 kPa
318.1 K, Crystal, Calculated from knudsen effusion weight loss | 9.7e-05 ± 2e-05 kPa
318.8 K, Crystal, Calculated from knudsen effusion weight loss | 0.000119 ± 2.5e-05 kPa
319.4 K, Crystal, Calculated from knudsen effusion weight loss | 0.00011 ± 2e-05 kPa
320 K, Crystal, Calculated from knudsen effusion weight loss | 0.000134 ± 2.8e-05 kPa
320.8 K, Crystal, Calculated from knudsen effusion weight loss | 0.000138 ± 2.8e-05 kPa and 0.000148 ± 3e-05 kPa
321.1 K, Crystal, Calculated from knudsen effusion weight loss | 0.00014 ± 3e-05 kPa
322.3 K, Crystal, Calculated from knudsen effusion weight loss | 0.00015 ± 3e-05 kPa
322.9 K, Crystal, Calculated from knudsen effusion weight loss | 0.000179 ± 3.7e-05 kPa
324 K, Crystal, Calculated from knudsen effusion weight loss | 0.00019 ± 4e-05 kPa
325.1 K, Crystal, Calculated from knudsen effusion weight loss | 0.00021 ± 4e-05 kPa
327 K, Crystal, Calculated from knudsen effusion weight loss | 0.00027 ± 6e-05 kPa
328.1 K, Crystal, Calculated from knudsen effusion weight loss | 0.0003 ± 6e-05 kPa
329.9 K, Crystal, Calculated from knudsen effusion weight loss | 0.00036 ± 7e-05 kPa
331.1 K, Crystal, Calculated from knudsen effusion weight loss | 0.0004 ± 8e-05 kPa
332.9 K, Crystal, Calculated from knudsen effusion weight loss | 0.00048 ± 0.0001 kPa
334 K, Crystal, Calculated from knudsen effusion weight loss | 0.00057 ± 0.00012 kPa
335.9 K, Crystal, Calculated from knudsen effusion weight loss | 0.0007 ± 0.00014 kPa
337.1 K, Crystal, Calculated from knudsen effusion weight loss | 0.00075 ± 0.00016 kPa
338.9 K, Crystal, Calculated from knudsen effusion weight loss | 0.00091 ± 0.00019 kPa
340.2 K, Crystal, Calculated from knudsen effusion weight loss | 0.00106 ± 0.00023 kPa
341.7 K, Crystal, Calculated from knudsen effusion weight loss | 0.00122 ± 0.00027 kPa
343 K, Crystal, Calculated from knudsen effusion weight loss | 0.00145 ± 0.00032 kPa
344.6 K, Crystal, Calculated from knudsen effusion weight loss | 0.00162 ± 0.00035 kPa
346.1 K, Crystal, Calculated from knudsen effusion weight loss | 0.0019 ± 0.00042 kPa
347.6 K, Crystal, Calculated from knudsen effusion weight loss | 0.0022 ± 0.0005 kPa
348.8 K, Crystal, Calculated from knudsen effusion weight loss | 0.0025 ± 0.0006 kPa
388.2 K, Liquid, Rate of evaporation | 0.067 ± 0.027 kPa
391.2 K, Liquid, Rate of evaporation | 0.08 ± 0.033 kPa
395.2 K, Liquid, Rate of evaporation | 0.099 ± 0.04 kPa
399.1 K, Liquid, Rate of evaporation | 0.119 ± 0.048 kPa
402.1 K, Liquid, Rate of evaporation | 0.147 ± 0.06 kPa
405 K, Liquid, Rate of evaporation | 0.17 ± 0.069 kPa
408 K, Liquid, Rate of evaporation | 0.197 ± 0.08 kPa
412 K, Liquid, Rate of evaporation | 0.241 ± 0.098 kPa
416 K, Liquid, Rate of evaporation | 0.292 ± 0.12 kPa
419.9 K, Liquid, Rate of evaporation | 0.338 ± 0.14 kPa
422.9 K, Liquid, Rate of evaporation | 0.396 ± 0.16 kPa
425.9 K, Liquid, Rate of evaporation | 0.443 ± 0.18 kPa
428.9 K, Liquid, Rate of evaporation | 0.51 ± 0.21 kPa
431.8 K, Liquid, Rate of evaporation | 0.601 ± 0.24 kPa

Conditions | Triple point temperature [K]
[2], Crystal | 382 ± 2.1
